Measured values reported in patent US20020032173A1, “Blood flow improvers and thrombosis preventives or remedies” (Koyo Chemical Co., Ltd., priority 2000, published 2002).
Values joined by “and” are separate entries in the source; they are usually repeats but may differ in a detail not shown here. Equal entries are not always repeated.

Experiments:
adult volunteers [1] = test: Test 3: whole blood transit time by MC-FAN after oral N-acetylglucosamine; format: in vivo, human; settings: mean before administration 60.9 sec
Protocol: From each of adult volunteers (A: male, B: female, C: female, D: female, E: male) who had taken usual breakfast, a first blood sample (10 mL) was collected at 1:00 p.m. Immediately after the collection of the blood sample, 1.5 g of glucosamine hydrochloride with 50 mL of water was administered to the volunteer. Blood samples (10 mL, each; 5% heparinated) were collected upon elapsed time of 30 min, 60 min and 90 min after the administration. The fluidity of each blood sample was determined by a microchannel array flow analyzer (MC-FAN) which is a capillary model fabricated by VLSI technology. The determination was carried out as will be described below. […] A transit time necessary for 100 μL of the whole blood sample to pass through the microchannels was measured. Using a transit time necessary for 100 μL of physiological saline to pass through the microchannels as measured just before the blood measurement, the transit time of the whole blood sample was converted in accordance with the following equation: Transit time of the whole blood x 12 sec/transit time of the physiological saline to obtain a value which would have been available if the transmit time of physiological saline had been 12 sec. The value was recorded as a blood transit time. […]

adult volunteers [2] = test: Test 1: blood flow improving effects, whole blood transit time by microchannel array flow analyzer (MC-FAN) after oral glucosamine hydrochloride; format: in vivo, human; settings: for Transit time: 100 μL heparinated whole blood; for Transit time, Mean: mean of 5 volunteers, mean before administration 50.3 sec
Protocol: From each of adult volunteers (A: male, B: female, C: female, D: female, E: male) who had taken usual breakfast, a first blood sample (10 mL) was collected at 1:00 p.m. Immediately after the collection of the blood sample, 1.5 g of glucosamine hydrochloride with 50 mL of water was administered to the volunteer. Blood samples (10 mL, each; 5% heparinated) were collected upon elapsed time of 30 min, 60 min and 90 min after the administration. The fluidity of each blood sample was determined by a microchannel array flow analyzer (MC-FAN) which is a capillary model fabricated by VLSI technology. The determination was carried out as will be described below. A fresh 5%-heparinated whole blood sample, which had been obtained by adding 0.5 part by weight of a 1,000 IU/mL heparin sodium solution to 9.5 parts by weight of the corresponding blood sample, was caused to flow through an array of 8,736 parallel microchannels of 7 μm in width, 30 μm in length and 4.5 μm in depth (Bloody 6-7) under 20 cmH2O suction by using the microchannel array flow analyzer (MC-FAN). A transit time necessary for 100 μL of the whole blood sample to pass through the microchannels was measured. Using a transit time necessary for 100 μL of physiological saline to pass through the microchannels as measured just before the blood measurement, the transit time of the whole blood sample was converted in accordance with the following equation: Transit time of the whole blood x 12 sec/transit time of the physiological saline to obtain a value which would have been available if the transmit time of physiological saline had been 12 sec. The value was recorded as a blood transit time. The results are shown in Table 1, including indices of whole blood transit times of the blood samples collected after the administration of the glucosamine hydrochloride based on those of the corresponding blood samples collected before the administration of glucosamine hydrochloride (% relative to an initial value of 100%).

Row | Structure (SMILES) | mean blood transit time (adult volunteers [1]; 30 min after administration as in Test 1) [s] | mean blood transit time (adult volunteers [1]; 1 hr after administration as in Test 1) | Index (%) of whole blood transit time relative to initial value of 100% (adult volunteers [2]; 30 min after oral 1.5 g) [%] | Index (%) of whole blood transit time relative to initial value of 100% (adult volunteers [2]; 60 min after oral 1.5 g) [%] | Transit time (adult volunteers [2]; individual volunteer E, 90 min after oral 1.5 g with 50 mL water) [s] | Transit time (adult volunteers [2]; individual volunteers A-E, 30 min after oral 1.5 g with 50 mL water, normalised to saline 12 sec, hydrochloride) | Transit time (adult volunteers [2]; individual volunteers A-E, 60 min after oral 1.5 g with 50 mL water, hydrochloride) | Transit time, Mean (adult volunteers [2]; 30 min after oral 1.5 g) [s] | Transit time, Mean (adult volunteers [2]; 60 min after oral 1.5 g) [s]
1 | CC(=O)N[C@H]1C(O)O[C@H](CO)[C@@H](O)[C@@H]1O (stereo partly drawn) [N-acetylglucosamine] | 36.5 | increased back to the value before the administration | – | – | – | – | – | – | –
2 | Cl.N[C@H]1C(O)O[C@H](CO)[C@@H](O)[C@@H]1O (stereo partly drawn) [glucosamine hydrochloride] | – | – | 70.0 | 67.1 | 31.6 | 35.3 s and 36.1 s and 28.6 s and 38.6 s and 37.1 s | 28.7 s and 37.1 s and 27.4 s and 42.3 s and 33.2 s | 35.1 | 33.7
